{"source": "ChEMBL document CHEMBL1201862", "about": "“PubChem BioAssay data set” (2004)", "assay_in_all_cases": "NCI tumour cell line growth inhibition, 48 h", "key": {"786-0": {"test_system": "786-0"}, "A498": {"test_system": "A498"}, "A549": {"test_system": "A549"}, "ACHN": {"test_system": "ACHN"}, "BT-549": {"test_system": "BT-549"}, "CAKI-1": {"test_system": "CAKI-1"}, "CCRF-CEM": {"test_system": "CCRF-CEM"}, "COLO 205": {"test_system": "COLO 205"}, "DU-145": {"test_system": "DU-145"}, "EKVX": {"test_system": "EKVX"}, "HCC 2998": {"test_system": "HCC 2998"}, "HCT-116": {"test_system": "HCT-116"}, "HCT-15": {"test_system": "HCT-15"}, "HOP-62": {"test_system": "HOP-62"}, "HOP-92": {"test_system": "HOP-92"}, "HT-29": {"test_system": "HT-29"}, "Hs-578T": {"test_system": "Hs-578T"}, "K562": {"test_system": "K562"}, "KM12": {"test_system": "KM12"}, "LOX IMVI": {"test_system": "LOX IMVI"}, "M14": {"test_system": "M14"}, "MDA-MB-231": {"test_system": "MDA-MB-231"}, "MDA-MB-435": {"test_system": "MDA-MB-435"}, "MDA-N": {"test_system": "MDA-N"}, "Malme-3M": {"test_system": "Malme-3M"}, "NCI-H226": {"test_system": "NCI-H226"}, "NCI-H23": {"test_system": "NCI-H23"}, "NCI-H460": {"test_system": "NCI-H460"}, "NCI/ADR-RES": {"test_system": "NCI/ADR-RES"}, "OVCAR-3": {"test_system": "OVCAR-3"}, "OVCAR-4": {"test_system": "OVCAR-4"}, "OVCAR-5": {"test_system": "OVCAR-5"}, "OVCAR-8": {"test_system": "OVCAR-8"}, "PC-3": {"test_system": "PC-3"}, "RPMI-8226": {"test_system": "RPMI-8226"}, "RXF 393": {"test_system": "RXF 393"}, "SF-268": {"test_system": "SF-268"}, "SF-295": {"test_system": "SF-295"}, "SF-539": {"test_system": "SF-539"}, "SK-MEL-28": {"test_system": "SK-MEL-28"}, "SK-MEL-2": {"test_system": "SK-MEL-2"}, "SK-MEL-5": {"test_system": "SK-MEL-5"}, "SK-OV-3": {"test_system": "SK-OV-3"}, "SN12C": {"test_system": "SN12C"}, "SNB-19": {"test_system": "SNB-19"}, "SNB-75": {"test_system": "SNB-75"}, "SR": {"test_system": "SR"}, "SW-620": {"test_system": "SW-620"}, "T47D": {"test_system": "T47D"}, "TK-10": {"test_system": "TK-10"}, "U-251": {"test_system": "U-251"}, "UACC-257": {"test_system": "UACC-257"}, "UACC-62": {"test_system": "UACC-62"}, "UO-31": {"test_system": "UO-31"}}, "note": "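These data come from cells grown in 96-well plates and exposed to compound for 48 hours at five concentrations. Here, GI50 denotes the concentration required for 50% inhibition of growth.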 Active and inactive are the calls of the source. Rule as the data show it: active = GI50 up to about 1.1 µM and inactive = higher."}
{"molecule": "CCN(CC)C(=S)SNCCc1ccc(S(N)(=O)=O)cc1", "values": [{"measurement": "GI50", "setting": "786-0", "result": "14.7 µM (inactive)"}, {"measurement": "GI50", "setting": "A498", "result": "30.7 µM (inactive)"}, {"measurement": "GI50", "setting": "A549", "result": "11.9 µM (inactive)"}, {"measurement": "GI50", "setting": "ACHN", "result": "17.9 µM (inactive)"}, {"measurement": "GI50", "setting": "BT-549", "result": "16 µM (inactive)"}, {"measurement": "GI50", "setting": "CAKI-1", "result": "14 µM (inactive)"}, {"measurement": "GI50", "setting": "CCRF-CEM", "result": "0.169 µM (active)"}, {"measurement": "GI50", "setting": "COLO 205", "result": "29.2 µM (inactive)"}, {"measurement": "GI50", "setting": "DU-145", "result": "14 µM (inactive)"}, {"measurement": "GI50", "setting": "EKVX", "result": "20 µM (inactive)"}, {"measurement": "GI50", "setting": "HCC 2998", "result": "21.6 µM (inactive)"}, {"measurement": "GI50", "setting": "HCT-116", "result": "13.3 µM (inactive)"}, {"measurement": "GI50", "setting": "HCT-15", "result": 16.8, "unit": "µM"}, {"measurement": "GI50", "setting": "HOP-62", "result": "12.2 µM (inactive)"}, {"measurement": "GI50", "setting": "HOP-92", "result": "17.5 µM (inactive)"}, {"measurement": "GI50", "setting": "HT-29", "result": "10.2 µM (inactive)"}, {"measurement": "GI50", "setting": "Hs-578T", "result": "19.5 µM (inactive)"}, {"measurement": "GI50", "setting": "K562", "result": "20 µM (inactive)"}, {"measurement": "GI50", "setting": "KM12", "result": "16.6 µM (inactive)"}, {"measurement": "GI50", "setting": "LOX IMVI", "result": "8 µM (inactive)"}, {"measurement": "GI50", "setting": "M14", "result": "10.9 µM (inactive)"}, {"measurement": "GI50", "setting": "MDA-MB-231", "result": "14.7 µM (inactive)"}, {"measurement": "GI50", "setting": "MDA-MB-435", "result": "14.7 µM (inactive)"}, {"measurement": "GI50", "setting": "MDA-N", "result": "18.3 µM (inactive)"}, {"measurement": "GI50", "setting": "Malme-3M", "result": "12 µM (inactive)"}, {"measurement": "GI50", "setting": "NCI-H226", "result": "42.7 µM (inactive)"}, {"measurement": "GI50", "setting": "NCI-H23", "result": "18.8 µM (inactive)"}, {"measurement": "GI50", "setting": "NCI-H460", "result": "22.4 µM (inactive)"}, {"measurement": "GI50", "setting": "NCI/ADR-RES", "result": "17.4 µM (inactive)"}, {"measurement": "GI50", "setting": "OVCAR-3", "result": "18.9 µM (inactive)"}, {"measurement": "GI50", "setting": "OVCAR-4", "result": "14.4 µM (inactive)"}, {"measurement": "GI50", "setting": "OVCAR-5", "result": "15.6 µM (inactive)"}, {"measurement": "GI50", "setting": "OVCAR-8", "result": "12.6 µM (inactive)"}, {"measurement": "GI50", "setting": "PC-3", "result": "13.9 µM (inactive)"}, {"measurement": "GI50", "setting": "RPMI-8226", "result": "11.5 µM (inactive)"}, {"measurement": "GI50", "setting": "RXF 393", "result": "7.57 µM (inactive)"}, {"measurement": "GI50", "setting": "SF-268", "result": "15.6 µM (inactive)"}, {"measurement": "GI50", "setting": "SF-295", "result": "16.7 µM (inactive)"}, {"measurement": "GI50", "setting": "SF-539", "result": "14.1 µM (inactive)"}, {"measurement": "GI50", "setting": "SK-MEL-28", "result": "9.23 µM (inactive)"}, {"measurement": "GI50", "setting": "SK-MEL-2", "result": "33.6 µM (inactive)"}, {"measurement": "GI50", "setting": "SK-MEL-5", "result": "11.2 µM (inactive)"}, {"measurement": "GI50", "setting": "SK-OV-3", "result": "25.4 µM (inactive)"}, {"measurement": "GI50", "setting": "SN12C", "result": "14.2 µM (inactive)"}, {"measurement": "GI50", "setting": "SNB-19", "result": "20 µM (inactive)"}, {"measurement": "GI50", "setting": "SNB-75", "result": "13.9 µM (inactive)"}, {"measurement": "GI50", "setting": "SR", "result": "< 0.01 µM (active)"}, {"measurement": "GI50", "setting": "SW-620", "result": "14.1 µM (inactive)"}, {"measurement": "GI50", "setting": "T47D", "result": "18.1 µM (inactive)"}, {"measurement": "GI50", "setting": "TK-10", "result": "18.6 µM (inactive)"}, {"measurement": "GI50", "setting": "U-251", "result": "15.5 µM (inactive)"}, {"measurement": "GI50", "setting": "UACC-257", "result": "15.5 µM (inactive)"}, {"measurement": "GI50", "setting": "UACC-62", "result": "16.9 µM (inactive)"}, {"measurement": "GI50", "setting": "UO-31", "result": "13.1 µM (inactive)"}]}
